PMC5289826 (PLoS ONE, 2017)

Tests used:
[1] = biological target: T1, recombinant human 11β-HSD1 (Homo sapiens, UniProt P28845); test: 11β-HSD1 enzyme activity in cell lysates (cortisone to cortisol, radiolabeled tracer, TLC); format: biochemical; settings: for 11β-HSD1 Residual activity, % of control at 100 nM: 100 nM compound; for 11β-HSD1 Residual activity, % of control at 100 nM / 11β-HSD1 Residual activity, % of control at 1 μM: lysates of HEK-293 cells, 200 nM cortisone, mean of three experiments; for 11β-HSD1 Residual activity, % of control at 1 μM: 1 μM compound; for activity towards 11β-HSD1, effect of substituent (in words): cell lysates, SAR comparison within the series
T1 construct: expressed in transfected cells
Protocol: (§1) Human embryonic kidney (HEK-293) cells either stably expressing human 11β-HSD1 and H6PDH (HHH7 clone, [38]) or 11β-HSD2 (AT8 clone, [39]), or transiently expressing human 17β-HSD1 or 17β-HSD2, were cultivated in Dulbecco’s modified Eagle medium (DMEM) containing 4.5 g/L glucose, 10% fetal bovine serum, 100 U/mL penicillin, 0.1 mg/mL streptomycin, 1 × MEM nonessential amino acids, and 10 mM HEPES buffer, pH 7.4. Cells were washed with phosphate-buffered saline (PBS), centrifuged for 4 min at 150 × g, and the cell pellets were snap frozen on dry ice and stored at −80°C until further use.
(§2) Cell lysates were resuspended in TS2 buffer (100 mM NaCl, 1 mM EGTA, 1 mM EDTA, 1 mM MgCl2, 250 mM sucrose, 20 mM Tris-HCl, pH 7.4), followed by sonication at 4°C using a Hielscher UP50H ultrasonic processor (0.3 cycle, 20 amplitude %, 20 impulses; Hielscher Ultrasonics GmbH, Teltow Germany). Cell lysates, reaction mixture, and either vehicle (DMSO) or inhibitor were incubated for 10 min at 37°C in a final volume of 22.2 μL. The solvent concentration was 0.1%. […] 11β-HSD2 activity was measured in the presence of 50 nM cortisol and 500 μM NAD^+. An amount of 50 nCi of radiolabeled tracer substrate was included in the experiments. […] The bands of the corresponding steroids were excised, followed by scintillation counting and calculation of the amount of substrate conversion. Data were obtained from at least three independent measurements. Glycyrrhetinic acid (CTRL 1) was used as positive control for 11β-HSD1 and 11β-HSD2 inhibition, apigenin (CTRL 2) for 17β-HSD1, and compound 22 from Vuorinen et al. [40](CTRL 3) for 17β-HSD2 inhibition.

[2] = tested on: T2, recombinant human 11β-HSD2; test: 11β-HSD2 enzyme activity in cell lysates (cortisol to cortisone); format: biochemical; settings: 1 μM compound; lysates of HEK-293 cells; 50 nM cortisol
T2 construct: expressed in transfected cells
Protocol: as §1, §2

human skin biopsies [3] = test: Dermal total collagen content in ex vivo human skin biopsies (Picrosirius Red); settings: for effect on cortisone-induced collagen decrease (in words): 10 μM or 100 μM inhibitor topically, 6 days, 100 nM cortisone for 5 days
Protocol: (§3) Ex vivo skin experiments were performed as contract research by Cutech Biotechnology following the Helsinki declaration and who obtained permission as well as informed consent from the patient (Padova, Italy). Human skin from abdominal plastic surgery of a donor was used. Skin samples were cut in pieces of approximately 8 × 3 mm (diameter × thickness) and cultured in an air-liquid interface in a perforated ring of stainless steel in contact with culture medium (modified Williams’ E medium, Sigma Aldrich) up to day 6. The culture medium was renewed on day 0 and day 3. The test compounds were applied topically and renewed daily. The application was performed as follows: skin biopsies were gently cleaned with a cotton pad and 4 μL of 10 μM or 100 μM test compound were applied on top of each piece and covered with a 6 mm (diameter) delivery membrane (CoTran 9728 Controlled Caliper Ethylene Vinyl Acetate Membrane, 3M, St. Paul, MN, USA).
Skin viability was assessed in two skin biopsies after 6 days of treatment using methylthiazolyldiphenyl‐tetrazolium bromide (MTT, Sigma Aldrich) staining. Total dermal collagen in skin sections was semi-quantitatively evaluated by Picrosirius Red histochemical staining (using Picric Acid, Fast Green FCF and Direct Red from Sigma Aldrich) that dyes collagen fibers in purple-red. […] The evaluation was performed by estimating both color intensity and distribution using IMAGE J (NIH) analysis software, allowing to obtain a semi-quantitative evaluation of dermal collagen (collagen score). Two slides of each skin sample were processed by image acquisition and related analysis (i.e. 12 images for each treatment).

human 17β-HSD1 = tested on: T3, human 17β-HSD1; test: 17β-HSD1 enzyme activity in cell lysates (estrone to estradiol); format: biochemical; settings: 1 μM, 200 nM estrone
T3 construct: expressed in transfected cells; host or cells: HEK-293 (transient)
Protocol: as §1, §2

human 17β-HSD2 = tested on: T4, human 17β-HSD2; test: 17β-HSD2 enzyme activity in cell lysates (estradiol to estrone); format: biochemical; settings: 1 μM, 200 nM estradiol
T4 construct: expressed in transfected cells; host or cells: HEK-293 (transient)
Protocol: as §1, §2

human 11β-HSD1 = tested on: T5, human 11β-HSD1; test: 11β-HSD1 activity assay in intact HEK-293 cells co-expressing 11β-HSD1 and H6PDH; format: cell-based; settings: 100 nM and 1 μM compound; intact HHH7 cells; 200 nM cortisone; 30 min
T5 construct: expressed in transfected cells
Protocol: HEK-293 cells co-expressing 11β-HSD1 and H6PDH were seeded in poly-L-lysine coated 96 well-plates (30’000 cells/well) and cultivated in DMEM. At 24 h post-seeding, the cells were washed with charcoal-treated serum-free DMEM (cDMEM) and incubated for 3 h in 100 μL cDMEM. Then, the medium was aspirated and replaced by 30 μL cDMEM. […] The reactions were terminated after 30 min of incubation, followed by analysis of substrate conversion as described above. Data were obtained from at least three independent measurements.

endogenous 11β-HSD1 = biological target: T6, endogenous 11β-HSD1 (Homo sapiens, UniProt P28845); test: 11β-HSD1-dependent cortisol formation in intact primary human keratinocytes; format: cell-based; settings: for inhibition of cortisol formation (in words): 1 μM compound, primary human keratinocytes, 1 μM cortisone, 24 h; for IC50: read-out: estimated IC50 of cortisol formation
T6 construct: intact primary human keratinocytes expressing endogenous 11β-HSD1; host or cells: primary human epidermal keratinocytes
Protocol: Human epidermal keratinocytes obtained from CELLnTEC advanced Cell Systems (Berne, Switzerland) were maintained in CnT-Prime medium (http://cellntec.com/products/cnt-pr/#datasheet) at 37°C. Cells were subcultivated before reaching confluence. After reaching 90% of confluence, the keratinocytes were washed twice with PBS prior to change to cortisol-free CnT-Prime medium (custom-made by CELLnTEC). […] Compound CAS 1009373-58-3 (CTRL 4, Merck Millipore, Darmstadt, Germany) was used as positive control. After 24 h cell culture supernatants were collected and the amount of cortisol produced was measured on a Mulstiskan Ascent plate reader (MTX Lab Systems, Bradenton, FL) using the Cortisol Parameter Assay Kit (R&D Systems, Minneapolis, MN) following the instructions by the manufacturer. Cell viability was assessed using PrestoBlue® Cell Viability Reagent (Invitrogen, Carlsbad, CA) according to the manufacturer’s instructions.

human skin biopsies [4] = test: Dermal collagen III content in UV exposed ex vivo human skin biopsies (anti-collagen III antibody)
Protocol: as §3
Skin biopsies were subjected to UV irradiation using a BIO-SUN system (Vilber Lourmat, Eberhardzell, Germany). The system had the following specifications: Lamp wave length: UVB 312 nm (range 280–320 nm) and UVA 365 nm (range 355–375 nm), range of measure (irradiance): accuracy and linearity ± 0.2%, range of programmed energy: 0.1 to 99.99 J/cm^2, intensity: UVA (365 nm) 5 mW/cm^2, UVB (312 nm) 3 mW/cm^2, UVA + UVB: 5.6 + 3.2 mW/cm^2, respectively. The selected UV irradiation intensities were 40% and 80% of the Biological Effective Dose (BED) of 7.5 J/cm^2 UV daylight as described by Del Bino et al.. UV 40% BED = 3.0 J/cm^2 (= 0.1 J/cm^2 UVB + 2.9 J/cm^2 UVA); UV 80% = 6.0 J/cm^2 (= 0.2 J/cm^2 UVB + 5.8 J/cm^2 UVA).
Furthermore, in a preliminary set of experiments, skin biopsies were UV irradiated at 3.0 J/cm^2 and 6.0 J/cm^2 and treated topically with 4 μL of 10 μM or 100 μM of the respective inhibitor, followed by determination of collagen III content using a mouse monoclonal anti-collagen III antibody (Sigma Aldrich).

[5] = 100 μM, 6.0 J/cm^2 UV irradiation

T1 sequence (P28845 whole entry): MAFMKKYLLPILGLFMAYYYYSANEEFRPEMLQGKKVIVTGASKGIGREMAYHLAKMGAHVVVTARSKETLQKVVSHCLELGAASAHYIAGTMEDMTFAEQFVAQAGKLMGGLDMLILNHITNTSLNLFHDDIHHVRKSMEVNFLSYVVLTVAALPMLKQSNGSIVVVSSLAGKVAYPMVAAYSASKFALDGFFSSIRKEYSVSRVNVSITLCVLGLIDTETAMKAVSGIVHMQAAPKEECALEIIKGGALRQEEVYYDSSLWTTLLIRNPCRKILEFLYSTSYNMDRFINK
T6 sequence (P28845 whole entry): as above

SMILES	11β-HSD1 Residual activity, % of control at 100 nM [1]	11β-HSD1 Residual activity, % of control at 1 μM [1]	11β-HSD2 Residual activity, % of control at 1 μM [2]	melting point [°C]	activity towards 11β-HSD1, effect of substituent (in words) [1]	decrease in dermal collagen (human skin biopsies [3]; 10 nM, 100 nM and 1 μM cortisone, p<0.01)	IC50 [1] [nM]	inhibition of 17β-HSD1 (in words) (human 17β-HSD1)	inhibition of 17β-HSD2 (in words) (human 17β-HSD2)	inhibition of 11β-HSD1 in intact cells (in words) (human 11β-HSD1)	inhibition of cortisol formation (in words) (endogenous 11β-HSD1)	IC50 (endogenous 11β-HSD1) [nM]	effect on cortisone-induced collagen decrease (in words) (human skin biopsies [3])	collagen III vs UV treated vehicle control (in words) (human skin biopsies [4]; 10 μM, UV irradiated biopsies)	collagen III vs UV treated vehicle control (in words) (human skin biopsies [4]; [5])
O=C(c1cccc(-c2ccc(Cl)cc2)c1)N1CCCCCC1 [5e, Azepan-1-yl(4’-chloro-[1,1’-biphenyl]-3-yl)methanone]	50 % of control	2 % of control	> 90 % of control	116 to 117											
Cc1ccc(-c2cccc(C(=O)N3CCC[C@H]3C(N)=O)c2)cc1F [3f, (S)-1-(3’-fluoro-4’-methyl-[1,1’-biphenyl]-3-carbonyl)-pyrrolidine-2-carboxamide]	> 90 % of control	> 90 % of control	> 90 % of control	73 to 75	abolished the activity										
CC1CCN(C(=O)c2cccc(-c3ccc(C(N)=O)cc3)c2)CC1 [9b, 3’-(4-methylpiperidine-1-carbonyl)-[1,1’-biphenyl]-4-carboxamide]	65 % of control	19 % of control	> 90 % of control	188 to 190	substantial loss of activity										
C[C@]12CCC(=O)C=C1CC[C@@H]1[C@@H]2C(=O)C[C@@]2(C)[C@H]1CC[C@]2(O)C(=O)CO [cortisone, reference compound]						20–26%									
O=C(c1cccc(-c2ccccc2)c1)N1CCCCCC1 [12e, [1,1’-Biphenyl]-3-yl(azepan-1-yl)methanone]	21 % of control		> 90 % of control				23.4	selective	selective	almost completely inhibited	almost completely inhibited	≤ 100	prevented the cortisone-induced collagen decrease	did not result in significant changes	significantly higher collagen III levels
O=C(c1cccc(-c2ccc(O)cc2)c1)N1CCCCCC1 [7e, Azepan-1-yl(4’-hydroxy-[1,1’-biphenyl]-3-yl)methanone]	28 % of control		> 90 % of control	184 to 185											
CC1CCN(C(=O)c2cccc(-c3ccc(O)cc3)c2)CC1 [7b, (4’-Hydroxy-[1,1’-biphenyl]-3-yl)(4-methylpiperidin-1-yl)methanone]	38 % of control	5 % of control	> 90 % of control				40.4	selective	selective	almost completely inhibited	almost completely inhibited	≤ 100			
CC1CCN(C(=O)c2cccc(-c3cccc(C(N)=O)c3)c2)CC1 [10b, 3’-(4-methylpiperidine-1-carbonyl)-[1,1’-biphenyl]-3-carboxamide]	89 % of control	34 % of control	> 90 % of control		substantial loss of activity										
Cc1ccc(-c2cccc(C(=O)N3CCCCCC3)c2)cc1 [1e, Azepan-1-yl(4’-methyl-[1,1’-biphenyl]-3-yl)methanone]	17 % of control		> 90 % of control	109 to 111			37.4								
Cc1ccc(-c2cccc(C(=O)N3CCC(C)CC3)c2)cn1 [2b, (4-Methylpiperidin-1-yl)(3-(6-methylpyridin-3-yl)phenyl)methanone]	36 % of control	5 % of control	> 90 % of control				42.2	selective	selective	almost completely inhibited	almost completely inhibited	≤ 100	prevented the cortisone-induced collagen decrease	did not result in significant changes	significantly higher collagen III levels
